Drawing on US20250195483A1, “SPIRO PIPERIDINE DERIVATIVES AS INHIBITORS OF APOL1 AND METHODS OF USING SAME” (Vertex Pharmaceuticals Incorporated, priority 2022, published 2025), this text covers IC50 for 6 molecules.

SMILES strings stand for the structures.

The assay concerns the target T1, APOL1 (Homo sapiens, UniProt O14791).
T1 sequence (O14791 1-398): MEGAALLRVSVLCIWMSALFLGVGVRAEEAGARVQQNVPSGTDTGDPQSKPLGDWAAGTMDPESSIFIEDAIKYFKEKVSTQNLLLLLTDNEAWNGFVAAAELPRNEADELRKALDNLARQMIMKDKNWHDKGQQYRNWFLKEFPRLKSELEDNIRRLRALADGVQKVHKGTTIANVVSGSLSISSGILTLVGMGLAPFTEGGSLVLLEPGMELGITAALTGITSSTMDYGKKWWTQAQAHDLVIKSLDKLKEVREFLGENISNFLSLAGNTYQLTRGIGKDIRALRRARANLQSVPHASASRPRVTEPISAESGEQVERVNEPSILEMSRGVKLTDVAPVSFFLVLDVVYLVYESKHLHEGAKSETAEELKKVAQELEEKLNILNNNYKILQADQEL
Kind of assay: MultiTox-Fluor Multiplex Cytotoxicity Assay, tet-inducible APOL1 T-REx-HEK293 cells (G0, G1 or G2 clone not specified for Table 20). The class given is cell-based. To be noted: tet-induced, 24 hours with compound, ratio of dead to live cells, read-out: IP50 (i.e., IC50 for cell proliferation). The method, boiled down:
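HEK293 T-REx cells with tet-inducible APOL1 G0, G1 or G2 clone, 23,400/well, treated with tetracycline plus compound (top 10 μM, 10-point 3-fold, duplicate) for 24 h at 37° C. MultiTox-Fluor dead/live fluorescence ratio, normalized to no-tet (100% viability) and 50 ng/mL tet (0% viability) controls, then curve-fitted.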
In the case of `Cc1ccc2c(c1)C1(CCN(Cc3cnn(CCS(C)(=O)=O)c3)[C@@H](C)C1)CC2O` (stereo partly drawn) [Compound 308, (2′S)-2′,5-dimethyl-1′-[[1-(2-methylsulfonylethyl)pyrazol-4-yl]methyl]spiro[indane-3,4′-piperidine]-1-ol], the IC50 was at most 50 nM.

On to `Cc1cccc2c1C(O)CC21CCN(Cc2cnn(CCS(C)(=O)=O)c2)[C@@H](C)C1` (stereo partly drawn) [Compound 309, (2′S)-2′,4-dimethyl-1′-((1-(2-(methylsulfonyl)ethyl)-1H-pyrazol-4-yl)methyl)-2,3-dihydrospiro[indene-1,4′-piperidin]-3-ol], for which the IC50 lay in the range of 50 to 500 nM.

For the molecule `Cn1cc(CN2CCC3(CCc4ccc(Cl)cc43)CC2)cn1` [Compound 310, 6-chloro-1′-[(1-methylpyrazol-4-yl)methyl]spiro[indane-1,4′-piperidine]], the IC50 is at least 500 nM.

Consider `Cn1cc(CN2CCC3(CC2)NCc2ccc(Cl)cc23)cn1` [Compound 311, 6-chloro-1′-[(1-methylpyrazol-4-yl)methyl]spiro[isoindoline-1,4′-piperidine]], for which the IC50 is at least 500 nM.

Consider `CS(=O)(=O)CCn1cc(CN2CCC3(CC2)CC(N2CCNC2=O)c2ccc(Cl)cc23)cn1` (stereo not drawn) [Compound 312, 1-[5-chloro-1′-[[1-(2-methylsulfonylethyl)pyrazol-4-yl]methyl]spiro[indane-3,4′-piperidine]-1-yl]imidazolidin-2-one], for which the IC50 was at least 500 nM.

As to `CC(=O)N1CC2(CCN(Cc3cnn(C)c3)CC2)c2cc(Cl)ccc21` [Compound 314, 1-[5-chloro-1′-[(1-methylpyrazol-4-yl)methyl]spiro[indoline-3,4′-piperidine]-1-yl]ethenone], the IC50 was at least 500 nM.
